# Like-named read-outs stand apart in the source and are kept apart here.
# How the values were obtained:
# [1] = biological target: T. brucei N-myristoyl transferase (Trypanosoma brucei brucei (strain 927/4 GUTat10.1), UniProt Q388H8); assay: biochemical; format: biochemical; details: read-out: IC50 (μM) NMT Enzyme
# [2] = test system: Trypanosome (T. brucei brucei); assay: In-vitro antitrypanosomal efficacy assay (cell growth, resazurin); format: cell-based; details: T. brucei cell growth
# Description: To column 12, 200 μl media was added to provide a no cells control. Plates were then incubated at 37° C. in an atmosphere of 5% CO2 for 69 hours, before the addition of 20 μl of 500 μM rezasurin solution, and a further incubation period of 4 hours. […] Concentration effect curves were fitted using non-linear regression using XLFit 4.2 and EC50 values determined.
# [3] = value printed without enzyme tag in the NMT Enzyme column (taken as T. brucei NMT)
# Chain of T. brucei N-myristoyl transferase (Q388H8 1-446): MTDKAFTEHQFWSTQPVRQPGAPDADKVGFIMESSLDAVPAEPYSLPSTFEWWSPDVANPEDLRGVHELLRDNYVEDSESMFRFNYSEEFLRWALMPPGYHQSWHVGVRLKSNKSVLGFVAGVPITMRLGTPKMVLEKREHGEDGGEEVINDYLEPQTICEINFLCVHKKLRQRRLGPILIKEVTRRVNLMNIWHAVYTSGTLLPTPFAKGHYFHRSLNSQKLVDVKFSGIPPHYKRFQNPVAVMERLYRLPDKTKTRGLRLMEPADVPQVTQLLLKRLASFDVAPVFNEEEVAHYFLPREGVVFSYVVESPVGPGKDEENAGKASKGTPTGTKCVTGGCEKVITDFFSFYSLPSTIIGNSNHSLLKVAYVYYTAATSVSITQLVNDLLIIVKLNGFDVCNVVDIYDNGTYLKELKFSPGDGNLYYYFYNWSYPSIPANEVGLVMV
SMILES,"IC50 [1, 3] [µM]",ED50 (μM) T. brucei [2] [µM],"IC50 ([1]; value with no enzyme tag in the cell, taken as T. brucei NMT) [µM]"
Cc1nn(C)c(C)c1N[S+](=O)([O-])c1ccc(NCCc2ccc(-c3ccccc3)cc2)nc1 [DDD73482],60,>1,–
Cc1nn(C)c(C)c1N[S+](=O)([O-])c1ccc(Nc2ccc(Oc3ccccc3)cc2)nc1 [DDD73483],> 100,>1,–
Cc1nn(C)c(C)c1N[S+](=O)([O-])c1c(Cl)cc(C#Cc2cncn2C)cc1Cl [DDD73484],0.67,3.1,–
Cc1nn(C)c(C)c1N[S+](=O)([O-])c1c(Cl)cc(C#Cc2ccccc2)cc1Cl [DDD73485],34.3,>1,–
Cc1nn(C)c(C)c1N[S+](=O)([O-])c1ccc(N[C@H](C)c2ccc3ccccc3c2)nc1 [DDD73486],2.8,>1,–
Cc1nn(C)c(C)c1N[S+](=O)([O-])c1ccc(NCc2ccn(C)n2)nc1 [DDD73487],1.2,14.2,–
Cc1nn(C)c(C)c1N[S+](=O)([O-])c1ccc(NCCc2ccc3ccccc3c2)nc1 [DDD73489],12.4,>1,–
CCCn1nc(C)c(N[S+](=O)([O-])c2c(C)cc(OC)c(C)c2C)c1C [DDD73491],28.4,>1,–
Cc1nn(C)c(C)c1N[S+](=O)([O-])c1ccc(NCC(c2ccccc2)c2ccccc2)nc1 [DDD73492],13.6,>1,–
Cc1cnn(-c2ccc(CNc3ccc([S+](=O)([O-])Nc4c(C)nn(C)c4C)cn3)cc2)n1 [DDD73493],4.4,>1,–
Cc1nn(C)c(C)c1N[S+](=O)([O-])c1ccc(NCc2ccc(-n3ccnc3C)cc2)nc1 [DDD73494],0.71,8.8,–
Cc1nn(C)c(C)c1N[S+](=O)([O-])c1ccc(NCC(C)c2ccccc2)nc1 (stereo not shown) [DDD73495],0.96,7.8,–
COc1cc(C)c([S+](=O)([O-])Nc2c(C)nn(CCc3ccccc3)c2C)c(C)c1C [DDD73496],> 100,>1,–
COc1cc(C)c([S+](=O)([O-])Nc2c(C)nn(C(C)C)c2C)c(C)c1C [DDD73497],> 100,>1,–
Cc1nn(C)c(C)c1N[S+](=O)([O-])c1ccc(COc2ccc(C(C)(C)c3ccccc3)cc2)cc1 [DDD73499],> 100,>1,–
COc1cc(NCc2ccc([S+](=O)([O-])Nc3c(C)nn(C)c3C)cc2)cc(OC)c1OC [DDD73501],19,>1,–
Cc1nn(C)c(C)c1N[S+](=O)([O-])c1ccc(CNc2ccc(Oc3ccccc3)cc2)cc1 [DDD73502],4.8,>1,–
Cc1nn(C)c(C)c1N[S+](=O)([O-])c1ccc(Cn2cnc(-c3ccccc3)c2)cc1 [DDD73503],2.5,10.5,–
Cc1nn(C)c(C)c1N[S+](=O)([O-])c1ccc(CNc2ccncn2)cc1 [DDD73504],4.2,>1,–
Cc1nn(C)c(C)c1N[S+](=O)([O-])c1ccc(CNc2ccc(C(C)C)cc2)cc1 [DDD73505],9.7,>1,–
Cc1nn(C)c(C)c1N[S+](=O)([O-])c1ccc(CNc2ccc(N3CCOCC3)cc2)cc1 [DDD73506],10,>1,–
Cc1nn(C)c(C)c1N[S+](=O)([O-])c1ccc(COc2ccc3cc[nH]c3c2)cc1 [DDD73507],4.5,>1,–
Cc1nn(C)c(C)c1N[S+](=O)([O-])c1ccc(CNc2ccc(-c3ccccn3)cc2)cc1 [DDD73508],5.2,>1,–
Cc1nn(C)c(C)c1N[S+](=O)([O-])c1ccc(CNc2ccccc2)cc1 [DDD73509],3.8,>1,–
Cc1nn(C)c(C)c1N[S+](=O)([O-])c1ccc(CNc2noc(C)c2C)cc1 [DDD73510],26.9,>1,–
Cc1nn(C)c(C)c1N[S+](=O)([O-])c1ccc(COCc2ccc3ccccc3c2)cc1 [DDD73511],> 100,>1,–
Cc1nn(C)c(C)c1N[S+](=O)([O-])c1ccc(Cn2cnc3ccccc32)cc1 [DDD73512],6.1,>1,–

SMILES,"IC50 [1, 3] [µM]",ED50 (μM) T. brucei [2] [µM],"IC50 ([1]; value with no enzyme tag in the cell, taken as T. brucei NMT) [µM]"
COc1ccc(NCc2ccc([S+](=O)([O-])Nc3c(C)nn(C)c3C)cc2)cc1 [DDD73513],5.7,>1,–
Cc1nn(C)c(C)c1N[S+](=O)([O-])c1ccc(CSc2ccc3ccccc3c2)cc1 [DDD73516],47.6,>1,–
Cc1nn(C)c(C)c1N(C1CC1)[S+](=O)([O-])c1c(Cl)cc(Br)cc1Cl [DDD85591],0.59,5.3,–
Cc1nn(C)c(C)c1N[S+](=O)([O-])c1ccc(CNC2CCc3ccccc32)cc1 (stereo not shown) [DDD85592],44,>1,–
"Cc1nn(C)c(C)c1N(CCCO)S(=O)(=O)c1c(Cl)cc(Br)cc1Cl [DDD85593, 4-Bromo-2,6-dichloro-N-(3-hydroxy-propyl)-N-(1,3,5-trimethyl-1H-pyrazol-4-yl)-benzenesulfonamide]",0.36,3.5,–
CCCN(c1c(C)nn(C)c1C)[S+](=O)([O-])c1c(Cl)cc(Br)cc1Cl [DDD85594],3.2,21.0,–
Cc1nn(C)c(C)c1N[S+](=O)([O-])c1ccc(CN2CCCc3ccccc32)cc1 [DDD85596],41.7,>1,–
Cc1nn(C)c(C)c1N[S+](=O)([O-])c1ccc(N2CCc3ccccc32)nc1 [DDD85597],8,>1,–
Cc1nn(C)c(C)c1N[S+](=O)([O-])c1ccc(N2Cc3ccccc3C2)nc1 [DDD85598],18.2,>1,–
Cc1nn(C)c(C)c1N[S+](=O)([O-])c1ccc(CSCc2ccccc2)cc1 [DDD85599],2.4,>1,–
Cc1nn(C)c(C)c1N(C1CCCC1)[S+](=O)([O-])c1c(Cl)cc(Br)cc1Cl [DDD85600],1.9,5.9,–
COc1ccc(SCc2ccc([S+](=O)([O-])Nc3c(C)nn(C)c3C)cc2)cc1OC [DDD85604],3.3,>1,–
Cc1nn(C)c(C)c1N(C)[S+](=O)([O-])c1ccc(N2CCc3c(N)cccc3C2)nc1 [DDD85605],0.57,2.4,–
Cc1nn(C)c(C)c1N(CCc1ccccc1)[S+](=O)([O-])c1c(Cl)cc(Br)cc1Cl [DDD85606],4.9,3.6,–
Cc1nn(C)c(C)c1N(CCO)[S+](=O)([O-])c1c(Cl)cc(Br)cc1Cl [DDD85607],1.1,7.1,–
Cc1nn(C)c(C)c1N[S+](=O)([O-])c1ccc(CSc2ccc(C(C)(C)C)cc2)cc1 [DDD85609],69.5,>1,–
Cc1nn(C)c(C)c1N[S+](=O)([O-])c1ccc(CSc2ccc(Cl)cc2Cl)cc1 [DDD85610],61.6,>1,–
Cc1ncccc1N[S+](=O)([O-])c1ccc(NCc2ccc3[nH]ccc3c2)nc1 [DDD85611],7.2,>1,–
Cc1nn(C)c(C)c1N[S+](=O)([O-])c1ccc(NC2CCc3ccccc32)nc1 (stereo not shown) [DDD85613],6.6,>1,–
Cc1nn(C)c(C)c1N[S+](=O)([O-])c1ccc(N(C)Cc2ccc(CN(C)C)cc2)nc1 [DDD85624],0.36,1.5,–
Cc1nn(C)c(C)c1N(CC1CC1)[S+](=O)([O-])c1c(Cl)cc(Br)cc1Cl [DDD85625],0.67,4.6,–
Cc1nn(C)c(C)c1N[S+](=O)([O-])c1ccc(N(C)CCCN(C)C)nc1 [DDD85626],0.61,1.9,–
Cc1nn(C)c(C)c1N[S+](=O)([O-])c1ccc(NCCCN2CCN(C)CC2)nc1 [DDD85627],0.12,0.62,–
Cc1nn(C)c(C)c1N[S+](=O)([O-])c1ccc(COCCn2ccnc2)cc1 [DDD85628],11.1,>1,–
Cc1nn(C)c(C)c1N[S+](=O)([O-])c1ccc(NCCCN(C)C)nc1 [DDD85629],2.4,38.0,–
Cc1nn(C)c(C)c1N[S+](=O)([O-])c1ccc(NCCCn2ccnc2)nc1 [DDD85633],–,>50,2

# Source: patent publication US9156811B2 (priority 2008, dated 2015)
